Measured values published in patent US5919756A, “Amides” (Eli Lilly and Company, priority 1997, dated 1999).
≈ marks a conversion by molar mass, not a printed value.

Tests used:
Assay type in all cases: cell-based
[1] = test system: Enterococcus, Resistant (4-6 isolates); assay: Enterococcus screen, broth micro-dilution MIC, resistant isolates; parameters: unit not given here; details: mean of 4-6 isolates
Procedure: (§1) The antibacterial efficacy of the present compounds is illustrated in TABLE 2. The minimal inhibitory concentrations (MICs) were determined using a standard broth micro-dilution assay.

[2] = test system: Staphylococcus epidermis 270; assay: Broth micro-dilution MIC, SE 270; details: unit assumed
Procedure: as §1

[3] = test system: Staphylococcus aureus 489; assay: Broth micro-dilution MIC, SA 489; details: unit assumed
Procedure: as §1

[4] = test system: Staphylococcus aureus 446; assay: Broth micro-dilution MIC, SA 446; details: unit assumed
Procedure: as §1

[5] = test system: Enterococcus, Sensitive (4-6 isolates); assay: Enterococcus screen, broth micro-dilution MIC, sensitive isolates; parameters: unit not given here; details: mean of 4-6 isolates
Procedure: as §1

[6] = test system: Staphylococcus aureus 447; assay: Broth micro-dilution MIC, SA 447; details: unit assumed
Procedure: as §1

[7] = test system: Staphylococcus haemolyticus 415; assay: Broth micro-dilution MIC, SH 415; details: unit assumed
Procedure: as §1

[8] = test system: Streptococcus pyogenes 203; assay: Broth micro-dilution MIC, S PY 203; details: unit assumed
Procedure: as §1

[9] = test system: Streptococcus pneumoniae P1; assay: Broth micro-dilution MIC, S PN P1; details: unit assumed
Procedure: as §1

[10] = test system: Staphylococcus haemolyticus 105; assay: Broth micro-dilution MIC, SH 105; details: unit assumed
Procedure: as §1

Compound	Minimum Inhibitory Concentrations (MICs), Mean Values of 4-6 Isolates, Resistant [1]	MIC, SE270 [2] [µg/mL]	MIC, SA 489 [3] [µg/mL]	MIC, SA 446 [4] [µg/mL]	Minimum Inhibitory Concentrations (MICs), Mean Values of 4-6 Isolates, Sensitive [5]	MIC, SA 447 [6] [µg/mL]	MIC, SH415 [7] [µg/mL]	MIC, S PY 203 [8] [µg/mL]	MIC, S PN P1 [9] [µg/mL]	MIC, SH105 [10] [µg/mL]
N^4 -(4-PHENOXYBENZYL)A82846B, 3-(DIMETHYLAMINO)PROPYLAMIDE, TRIFLUOROACETATE SALT [Example 1]	1.4	0.25	2	4	0.13	1	2	≤ 0.06	≤ 0.125	2
CNC(CC(C)C)C(=O)NC1C(=O)NC(CC(N)=O)C(=O)NC2C(=O)NC3C(=O)NC(C(=O)NC(C(=O)NCc4ccccc4)c4cc(O)cc(O)c4-c4cc3ccc4O)C(OC3CC(C)(N)C(O)C(C)O3)c3ccc(c(Cl)c3)Oc3cc2cc(c3OC2OC(CO)C(O)C(O)C2OC2CC(C)(N)C(O)C(C)O2)Oc2ccc(cc2Cl)C1O.O=C(O)C(F)(F)F (stereo not drawn) [Example 24, A82846B, benzylamide, trifluoroacetate salt]	> 128	≤ 0.06	≤ 0.06	≤ 0.06	0.38	≤ 0.06	≤ 0.06	≤ 0.06	≤ 0.06	≤ 0.06
N^4 -(4-phenoxybenzyl)A82846B, benzylamide, trifiuoroacetate salt [Example 9]	2	0.5	1	1	0.082	1	1	≤ 0.06	≤ 0.06	1
CCCCc1ccc(CNC2(C)CC(OC3C(Oc4c5cc6cc4Oc4ccc(cc4Cl)C(OC4CC(C)(N)C(O)C(C)O4)C4NC(=O)C(NC(=O)C6NC(=O)C(CC(N)=O)NC(=O)C(NC(=O)C(CC(C)C)NC)C(O)c6ccc(c(Cl)c6)O5)c5ccc(O)c(c5)-c5c(O)cc(O)cc5C(C(=O)NCCc5ccccc5)NC4=O)OC(CO)C(O)C3O)OC(C)C2O)cc1.O=C(O)C(F)(F)F (stereo not drawn) [Example 15, N^4-(4-n-butylbenzyl)A82846B, phenethylamide, trifluoroacetate salt]	1.7	2	2	2	0.22	2	2	≤ 0.06	≤ 0.06	1
CNC(CC(C)C)C(=O)NC1C(=O)NC(CC(N)=O)C(=O)NC2C(=O)NC3C(=O)NC(C(=O)NC(C(=O)NCCCOC)c4cc(O)cc(O)c4-c4cc3ccc4O)C(OC3CC(C)(N)C(O)C(C)O3)c3ccc(c(Cl)c3)Oc3cc2cc(c3OC2OC(CO)C(O)C(O)C2OC2CC(C)(NCc3ccc(-c4ccccc4)cc3)C(O)C(C)O2)Oc2ccc(cc2Cl)C1O (stereo not drawn) [Example 13, N^4-(4-phenylbenzyl)A82846B, (3-methoxypropyl)amide]	1.4	1 (≈ 0.547 µM)	1 (≈ 0.547 µM)	1 (≈ 0.547 µM)	0.072	1 (≈ 0.547 µM)	0.5 (≈ 0.273 µM)	≤ 0.06	≤ 0.06	2 (≈ 1.09 µM)
CNC(CC(C)C)C(=O)NC1C(=O)NC(CC(N)=O)C(=O)NC2C(=O)NC3C(=O)NC(C(=O)NC(C(=O)NCc4ccccc4)c4cc(O)cc(O)c4-c4cc3ccc4O)C(OC3CC(C)(N)C(O)C(C)O3)c3ccc(c(Cl)c3)Oc3cc2cc(c3OC2OC(CO)C(O)C(O)C2OC2CC(C)(NCc3ccc(-c4ccccc4)cc3)C(O)C(C)O2)Oc2ccc(cc2Cl)C1O (stereo not drawn) [Example 10, N^4-(4-phenylbenzyl)A82846B, benzylamide]	0.84	0.5 (≈ 0.271 µM)	4 (≈ 2.16 µM)	1 (≈ 0.541 µM)	0.14	2 (≈ 1.08 µM)	4 (≈ 2.16 µM)	≤ 0.06	≤ 0.06	0.5 (≈ 0.271 µM)
